Data: ChEMBL document CHEMBL1201862, “PubChem BioAssay data set” (2004)
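Protocol summary: plate cells (96-well), add compound at 5 concentrations, incubate 48 h, interpolate endpoints linearly. Abbreviation: GI50, concentration required for 50% inhibition of growth.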 Activity calls are given as the source filed them. No stated cut-off is given here; in the data, active = GI50 up to about 1.1 µM and inactive = higher.

What was measured:
Experiment in all cases: growth of human tumour cells (NCI), 48 h
DLD-1 = test system: DLD-1
NCI-H226 = test system: NCI-H226
DMS-114 = test system: DMS-114
SK-MEL-5 = test system: SK-MEL-5
OVCAR-4 = test system: OVCAR-4
786-0 = test system: 786-0
DMS-273 = test system: DMS-273
UACC-257 = test system: UACC-257
NCI-H522 = test system: NCI-H522
HCT-116 = test system: HCT-116
HCC 2998 = test system: HCC 2998
K562 = test system: K562
SK-MEL-2 = test system: SK-MEL-2
M14 = test system: M14
LXFL 529 = test system: LXFL 529
CCRF-CEM = test system: CCRF-CEM
SK-MEL-28 = test system: SK-MEL-28
LOX IMVI = test system: LOX IMVI
IGROV-1 = test system: IGROV-1
OVCAR-8 = test system: OVCAR-8
M19-MEL = test system: M19-MEL
SN12C = test system: SN12C
EKVX = test system: EKVX
HCT-15 = test system: HCT-15
MOLT-4 = test system: MOLT-4
U-251 = test system: U-251
COLO 205 = test system: COLO 205
SF-268 = test system: SF-268
OVCAR-3 = test system: OVCAR-3
A498 = test system: A498
KM12 = test system: KM12
SW-620 = test system: SW-620
ACHN = test system: ACHN
HOP-62 = test system: HOP-62
HOP-92 = test system: HOP-92
SNB-78 = test system: SNB-78
SK-OV-3 = test system: SK-OV-3
HT-29 = test system: HT-29
UO-31 = test system: UO-31
CAKI-1 = test system: CAKI-1
SNB-75 = test system: SNB-75
UACC-62 = test system: UACC-62
XF498 = test system: XF498
A549 = test system: A549
SR = test system: SR
NCI-H23 = test system: NCI-H23
Malme-3M = test system: Malme-3M
NCI-H460 = test system: NCI-H460
OVCAR-5 = test system: OVCAR-5
KM-20L2 = test system: KM-20L2
TK-10 = test system: TK-10
SF-539 = test system: SF-539
SNB-19 = test system: SNB-19
SF-295 = test system: SF-295
HL-60 = test system: HL-60

Question: N#CC1=C(N)N2C(=O)/C(=C/c3ccccc3)SC2C(c2nc3ccccc3[nH]2)=C1c1ccccc1 (stereo not given) was tested. Which GI50 (DLD-1) did it give?
Answer: Its GI50 is 3260 nM (inactive).

Question: What about the GI50 (NCI-H226) of the same molecule?
Answer: Its GI50 is 1930 nM (inactive).

Question: What about the GI50 (DMS-114) of the same molecule?
Answer: Its GI50 is 2160 nM (inactive).

Question: What about the GI50 (SK-MEL-5) of the same molecule?
Answer: Its GI50 is 1830 nM (inactive).

Question: What about the GI50 (OVCAR-4) of the same molecule?
Answer: The GI50 was 2420 nM (inactive).

Question: What about the GI50 (786-0) of the same molecule?
Answer: Its GI50 is 2720 nM (inactive).

Question: And the GI50 (DMS-273)?
Answer: Its GI50 is 2070 nM (inactive).

Question: And the GI50 (UACC-257)?
Answer: The GI50 was 4550 nM (inactive).

Question: And the GI50 (NCI-H522)?
Answer: Its GI50 is 1860 nM (inactive).

Question: And the GI50 (HCT-116)?
Answer: The GI50 was 3450 nM (inactive).

Question: And the GI50 (HCC 2998)?
Answer: Its GI50 is 1570 nM (inactive).

Question: What about the GI50 (K562) of the same molecule?
Answer: The GI50 was 5320 nM (inactive).

Question: What about the GI50 (SK-MEL-2) of the same molecule?
Answer: The GI50 was 2040 nM (inactive).

Question: What about the GI50 (M14) of the same molecule?
Answer: The GI50 was 2440 nM (inactive).

Question: And the GI50 (LXFL 529)?
Answer: The GI50 was 2490 nM (inactive).

Question: And the GI50 (CCRF-CEM)?
Answer: Its GI50 is 1960 nM (inactive).

Question: And the GI50 (SK-MEL-28)?
Answer: The GI50 was 3120 nM (inactive).

Question: What about the GI50 (LOX IMVI) of the same molecule?
Answer: The GI50 was 1730 nM (inactive).

Question: What about the GI50 (IGROV-1) of the same molecule?
Answer: The GI50 was 2190 nM (inactive).

Question: What about the GI50 (OVCAR-8) of the same molecule?
Answer: The GI50 was 2460 nM (inactive).

Question: What about the GI50 (M19-MEL) of the same molecule?
Answer: Its GI50 is 2880 nM (inactive).

Question: What about the GI50 (SN12C) of the same molecule?
Answer: The GI50 was 2910 nM (inactive).

Question: What about the GI50 (EKVX) of the same molecule?
Answer: Its GI50 is 2230 nM (inactive).

Question: What about the GI50 (HCT-15) of the same molecule?
Answer: The GI50 was 2950 nM.

Question: What about the GI50 (MOLT-4) of the same molecule?
Answer: The GI50 was 2400 nM (inactive).

Question: What about the GI50 (U-251) of the same molecule?
Answer: Its GI50 is 2440 nM (inactive).

Question: And the GI50 (COLO 205)?
Answer: The GI50 was 5980 nM (inactive).

Question: And the GI50 (SF-268)?
Answer: The GI50 was 2420 nM (inactive).

Question: And the GI50 (OVCAR-3)?
Answer: The GI50 was 1890 nM (inactive).

Question: And the GI50 (A498)?
Answer: Its GI50 is 2120 nM (inactive).

Question: And the GI50 (KM12)?
Answer: The GI50 was 3550 nM (inactive).

Question: And the GI50 (SW-620)?
Answer: The GI50 was 3680 nM (inactive).

Question: And the GI50 (ACHN)?
Answer: The GI50 was 3670 nM (inactive).

Question: What about the GI50 (HOP-62) of the same molecule?
Answer: Its GI50 is 2440 nM (inactive).

Question: What about the GI50 (HOP-92) of the same molecule?
Answer: The GI50 was 687 nM (active).

Question: And the GI50 (SNB-78)?
Answer: The GI50 was 2520 nM (inactive).

Question: What about the GI50 (SK-OV-3) of the same molecule?
Answer: The GI50 was 1680 nM (inactive).

Question: What about the GI50 (HT-29) of the same molecule?
Answer: Its GI50 is 4030 nM (inactive).

Question: What about the GI50 (UO-31) of the same molecule?
Answer: Its GI50 is 1930 nM (inactive).

Question: And the GI50 (CAKI-1)?
Answer: Its GI50 is 2070 nM (inactive).

Question: What about the GI50 (SNB-75) of the same molecule?
Answer: Its GI50 is 1740 nM (inactive).

Question: And the GI50 (UACC-62)?
Answer: Its GI50 is 2170 nM (inactive).

Question: What about the GI50 (XF498) of the same molecule?
Answer: The GI50 was 2110 nM (inactive).

Question: What about the GI50 (A549) of the same molecule?
Answer: Its GI50 is 3870 nM (inactive).

Question: What about the GI50 (SR) of the same molecule?
Answer: Its GI50 is 1910 nM (inactive).

Question: And the GI50 (NCI-H23)?
Answer: The GI50 was 1850 nM (inactive).

Question: What about the GI50 (Malme-3M) of the same molecule?
Answer: Its GI50 is 1750 nM (inactive).

Question: And the GI50 (NCI-H460)?
Answer: Its GI50 is 3090 nM (inactive).

Question: And the GI50 (OVCAR-5)?
Answer: The GI50 was 2540 nM (inactive).

Question: And the GI50 (KM-20L2)?
Answer: The GI50 was 2750 nM (inactive).

Question: And the GI50 (TK-10)?
Answer: Its GI50 is 2420 nM (inactive).

Question: What about the GI50 (SF-539) of the same molecule?
Answer: Its GI50 is 1910 nM (inactive).

Question: What about the GI50 (SNB-19) of the same molecule?
Answer: The GI50 was 3400 nM (inactive).

Question: What about the GI50 (SF-295) of the same molecule?
Answer: Its GI50 is 2530 nM (inactive).

Question: And the GI50 (HL-60)?
Answer: The GI50 was 2310 nM (inactive).
